The results in this text go back to US8883771B2, “Bivalent inhibitors of IAP proteins and therapeutic methods using the same” (The Regents of the University of Michigan, priority 2012, dated 2014).

By IC50 is commonly meant the point on the concentration scale where inhibition reaches its midpoint.

Assay [1] has as its system MDA-MB-231 xenograft. The assay is described as follows: Antitumor activity in the MDA-MB-231 xenograft model in nude mice. Conditions: 3 mg/kg, weekly dose for 4 weeks (qwk×4, iv), start at average tumor volume 80 mm^3. It is filed as in vivo. On the procedure:
Treatments started when the tumors reached an average volume of 80 mm^3 Example 24 was given intravenously, weekly dose for 4 weeks (qwk×4, iv) at 10 mg/kg. Example 2 was given weekly dose for 4 weeks (qwk×4, iv) at 3 mg/kg. Control treatment was given vehicle control. Each group has 8-10 mice and each mouse has one tumor.

Assay [2] concerns MDA-MB-231 breast cancer cell line. The experiment in a line: Inhibition of cell growth in MDA-MB-231 breast cancer cell line. It is filed as cell-based, human. Conditions: Homo sapiens; MDA-MB-231 breast cancer cell line.
The test system of assay [3] is SK-OV-3 ovarian cancer cell line. The assay is described as follows: Inhibition of cell growth in SK-OV-3 ovarian cancer cell line. It is filed as cell-based, human. Conditions: Homo sapiens; SK-OV-3 ovarian cancer cell line.
Assay [4] has as its target XIAP linker-BIR2-BIR3 (residues 120-356) (Homo sapiens (Human), UniProt P98170). The assay is described as follows: Fluorescence polarization (FP) based competitive binding assay, XIAP linker-BIR2-BIR3. The settings on record: FP competitive assay, Smac-1F probe; read-out: Binding Affinities IC50 (nM) XIAP Protein. The method, then:
(§1) For cIAP-1 BIR3 and cIAP-2 BIR3 assays, a fluorescently labeled Smac mimetic (Smac-2F) was used as the fluorescent probe. The Kd values of Smac-2F to cIAP-1 BIR3 and cIAP-2 BIR3 were determined by monitoring the total fluorescence polarization of mixtures composed with the fluorescent probe at a fixed concentration and proteins with increasing concentrations up to full saturation. Fluorescence polarization values were measured using the Infinite M-1000 plate reader (Tecan U.S., Research Triangle Park, N.C.) in Microfluor 2 96-well, black, round-bottom plates (Thermo Scientific). To each well, 1 nM of SMAC-2F and increasing concentrations of protein were added to a final volume of 125 μl in the assay buffer (100 mM potassium phosphate, pH 7.5, 100 μg/ml bovine γ-globulin, 0.02% sodium azide, Invitrogen, with 4% DMSO). Plates were incubated at room temperature for 1-2 hours and mixed with gentle shaking to assure equilibrium. […] Equilibrium dissociation constants (Kd) were then calculated by fitting the sigmoidal dose-dependent FP increases as a function of protein concentrations using Graphpad Prism 5.0 software (Graphpad Software, San Diego, Calif.).
(§2) Mixtures of 5 μl of the tested compounds in DMSO and 120 μl of preincubated protein/tracer complex in the assay buffer (100 mM potassium phosphate, pH 7.5, 100 μg/ml bovine γ-globulin, 0.02% sodium azide, Invitrogen) were added into assay plates and incubated at room temperature for 2 hours with gentle shaking. Final concentrations of proteins and probes were 3 nM and 1 nM, 5 nM and 1 nM for assays for cIAP-1 BIR3 and cIAP-2 BIR3, respectively. […] FP values were measured as described above. IC50 values were determined by nonlinear regression fitting of the competition curves. The Ki values of competitive inhibitors were calculated using the derived equation described previously, based upon the measured IC50 values, the Kd values of the probe to different proteins, and the concentrations of the proteins and probes in the competitive assays.
The FP-based assay for XIAP linker-BIR2-BIR3 protein was performed with the same procedures. In this assay, a bivalent fluorescently tagged peptidic Smac mimetic (Smac-1F) was used as the fluorescent probe whose Kd value to XIAP linker-BIR2-BIR3 was determined similarly through the saturation experiments. 0.01% of Triton X-100 was added in the assay buffer to achieve stable fluorescence and polarization value of the dimeric fluorescent probe. Final protein and probe concentrations utilized in the competitive assay were 3 nM and 1 nM, respectively.
A general note: In fluorescence polarisation assays a small probe gives low polarisation when free and higher when bound to something large.

Assay [5] addresses cIAP-2 BIR3 (residues 238-349) (Homo sapiens (Human), UniProt Q13489). The experiment in a line: Fluorescence polarization (FP) based competitive binding assay, cIAP-2 BIR3. The settings on record: FP competitive assay, Smac-2F probe; read-out: Binding Affinities IC50 (nM) cIAP2 Protein. On the procedure: as §1, §2
Assay [6] addresses cIAP1-BIR3 (residues 253-363) (Homo sapiens (Human), UniProt Q13490). The experiment in a line: Fluorescence polarization (FP) based competitive binding assay, cIAP1-BIR3. Conditions: Smac-2F probe, read-out: Binding Affinities IC50 (nM) cIAP1 Protein. The method, then: as §1, §2

On to `CN[C@@H](C)C(=O)N[C@H]1CN(C(=O)Nc2ccc(NC(=O)N3CC[C@H]4CC[C@@H](C(=O)NC(c5ccccc5)c5ccccc5)N4C(=O)[C@@H](NC(=O)[C@H](C)NC)C3)cc2)CC[C@H]2CCC(C(=O)NC(c3ccccc3)c3ccccc3)N2C1=O` (stereo partly drawn) [Example 2], for which the “Antitumor activity (mean tumor volume)” value in assay [1] is “Tumor regression was achieved”.
Regarding `CN[C@@H](C)C(=O)N[C@H]1CN(S(=O)(=O)CC/C=C/CCS(=O)(=O)N2CC[C@H]3CC[C@@H](C(=O)NC(c4ccccc4)c4ccccc4)N3C(=O)[C@@H](NC(=O)[C@H](C)NC)C2)CC[C@H]2CCC(C(=O)NC(c3ccccc3)c3ccccc3)N2C1=O` (stereo partly drawn) [Example 7], the half-inhibitory concentration (IC50) in assay [2] is below 1000 nM; in assay [3], below 1000 nM; in assay [4], below 10 nM; in assay [5], below 300 nM; in assay [6], below 300 nM.
